Publication PMC10732398 (PLOS Pathogens, 2023)

System: ⍺4β7
Assay: SPR: inhibition by linear peptides of soluble ⍺4β7 binding to a CD4 D1D2 coated surface
Conditions: SPR peptide scan (Fig 4A); ⍺4β7 pre-incubated with peptide 2 hours at room temperature; 1 mM MnCl2
Text: We next modified our SPR -based assay in order to map the site(s) on CD4 that interacts with ⍺4β7. In this modified assay ⍺4β7 was passed over a surface coated with CD4 D1D2 in the absence or presence of 42 overlapping 15 amino acid linear peptides spanning CD4 residues 1–178 (S2 Table). Two peptides located in CD4 D1, #7 and #9, inhibited ⍺4β7 binding by ~17% (Fig 4A). The final peptide in CD4 D2, p42, inhibited binding by ~ 66%. Linear peptides often lack the true conformation of the protein from which they are derived. Additionally, the kinetic format of our assay allows for ligand-analyte rebinding during the association phase. These features render this inhibition assay somewhat insensitive. Nevertheless, the dynamic range of this assay is sufficient to identify interactions that are worthy of follow-up investigation (S4 Fig). As such, our preliminary findings raised the possibility that both D1 and D2 domains of CD4 interact with ⍺4β7. Of note, MAdCAM-1 and VCAM-1, like CD4, present two tandemly arrayed N-terminal IgSF domains (Fig 4B). In both cases, binding to ⍺4β7 is mediated by a 1° binding site in their D1s and an accessory site, located in their D2s. The term accessory is a misnomer insofar as these sites plays an essential role in ⍺4β7 binding. Follow-up experiments focused on p9 and p42, which we herein refer to as pCD4^33-47 and pCD4^165-178. pCD4^33-47 partially overlaps the D1 C’C” β-strands and a connecting loop. The primary gp120 contact site (Phe^43) lies at the N-terminal edge of this loop (Fig 4C). pCD4^165-178 includes Q^165 and K^166. These residues lie primarily within the G β-strand of D2, close to the boundary with D3. Because peptide inhibition assays sometime mediate nonspecific effects, further analysis was performed to better establish the role of these two regions of CD4 in binding to ⍺4β7.
To determine if this is the case, we employed an SPR -based assay. Biosensor surfaces were coated with either CD4 D1D2 or a 42 aa cyclic V2 peptide derived from the subtype E 92TH023 gp120 (cV2 92TH023). A third surface coated with MAdCAM-Ig was employed as a positive control. Soluble ⍺4β7 was passed over these surfaces. We then evaluated the capacity of staggered 15 aa peptides that span either CD4 D2 or gp120 V2 to inhibit this interaction (Fig 7A).
Experiments were performed using a Biacore 3000 instrument (Cytiva Life Sciences) using CM4 or CM5 sensor chips. The data were evaluated using BIAevaluation 4.1.1 software (Cytiva Life Sciences). The chip surface was activated by injecting 35 μl of a 1:1 mixture of 0.05 M N-hydroxysuccinimide and 0.2 M N-ethyl-N-(dimethylaminopropyl) carbodiimide at 5 μl/min. NeutrAvidin, HIV gp120, sCD4 (D1D2) or Hu-MAdCAM-Ig (R&D Systems) at concentrations of 5 μg/ml in 10mM NaOAc, pH 4.5, were immobilized to 250–750 resonance units (RU). After the proteins were immobilized to the desired densities, unreacted sites were blocked with 35 μl of 1 M Tris-HCl (pH 8.0). Biotinylated cyclic V2 peptides (1 μg/ml in 20 mM Tris-HCl, pH 8.0) were bound to the NeutrAvidin surfaces to densities of approximately 250–300 RU. One surface was activated and blocked without ligand as a control surface for non-specific binding. Signal from the control surface was subsequently subtracted. Running buffer was HBS (pH 7.4), 1 mM MnCl2, 0.005% Tween- 20, 0.05% soluble carboxymethyl-dextran. Binding experiments were carried out at a flow rate of 25 μl/min at 25°C. After a 2 min injection, the surface was washed for an additional 2 min in running buffer allowing dissociation of the bound ligand from the surface. The surfaces were regenerated by multiple injections of 4.5 M MgCl2 at a flow rate of 100 μl/min. Inhibition of ⍺4β7 binding by linear V2-loop and CD4 derived peptides was carried out by pre-incubating ⍺4β7 with the peptides in running buffer at the indicated concentrations for 2 hours at room temperature prior to passing them over the prepared surfaces as described above. […]

## QKKVEFKIDIVVLA [CD4 P42, linear CD4 D2 peptide, residues 165-178, G β-strand]
  inhibition of ⍺4β7 binding to CD4 D1D2 coated surface: ~ 66%
